Read-outs that look alike come from different tables or passages of the source. Blank lines part the entries; values can stand above or below the compound they belong to.
Tests used:
Calf DNA polymerase α [1] = target: T1, Calf DNA polymerase α (Bos taurus, UniProt A0AAA9THK8); assay: DNA polymerase assay, calf pol α; format: biochemical
Excerpt: (§1) Pol α was purified from calf thymus by immuno-affinity column chromatography as described by Tamai et al.. Recombinant rat pol β was purified from E. coli JMpβ5 as described by Date et al.. The human pol γ catalytic gene was cloned into pFastBac. Histidine-tagged enzyme was expressed using the BAC-TO-BAC HT Baculovirus Expression System according to the supplier's manual (LIFE TECHNOLOGIES, MD, USA) and purified using ProBoundresin (Invitrogen Japan, Tokyo, Japan). Human pols δ and ε were purified by the nuclear fractionation of human peripheral blood cancer cells (Molt-4) using the second subunit of pols δ and ε-conjugated affinity column chromatography, respectively. Recombinant human pols η and ι tagged with His6 at their C-terminal were expressed in SF9 insect cells using the baculovirus expression system, and were purified as described previously. A truncated form of pol κ (i.e., hDINB1DC) with 6 x His-tags attached at the C-terminal was overproduced using the BAC-to-BAC Baculovirus Expression System kit (GIBCO BRL, MD, USA) and purified as described previously. Recombinant human His-pol λ was overexpressed and purified according to a method described previously. Fish pol δ was purified from the testis of cherry salmon (Oncorhynchus masou). Pol I (α-like) from a higher plant, cauliflower inflorescence, was purified according to the methods outlined by Sakaguchi et al.. The Klenow fragment of pol I from E. coli was purchased from Worthington Biochemical Corp. (Freehold, NJ, USA). Taq pol, T4 pol, T7 RNA polymerase and T4 polynucleotide kinase were purchased from Takara (Kyoto, Japan). Bovine pancreas deoxyribonuclease I (DNase I) was obtained from Stratagene Cloning Systems (La Jolla, CA, USA).
(§2) The reaction mixtures for pol α, pol β, fish pol δ, plant pol I (α-like) and prokaryotic pols were described previously, and those for pol γ, and pols δ and ε were as described by Umeda et al. and Ogawa et al., respectively. The reaction mixtures for pols η, ι and κ were the same as for pol α, and the reaction mixture for pol λ was the same as that for pol β.
For pols, poly(dA)/oligo(dT)12-18 (A/T = 2/1) and dTTP were used as the DNA template-primer and nucleotide (i.e., dNTP) substrate, respectively. KA-A analogues (i.e., compounds 1–12) were dissolved in distilled dimethyl sulfoxide (DMSO) at various concentrations and sonicated for 30 sec. Aliquots of 4 μL of sonicated samples were mixed with 16 μL of each enzyme (final amount 0.05 units) in 50 mM Tris-HCl (pH 7.5) containing 1 mM dithiothreitol, 50% glycerol and 0.1 mM EDTA, and kept at 0 °C for 10 min. […] Activity without the inhibitor was considered 100%, and the remaining activity at each concentration of the inhibitor was determined relative to this value. […]

Rat DNA polymerase β [2] = target: T2, Rat DNA polymerase β (Rattus norvegicus, UniProt P06766); assay: DNA polymerase assay, rat pol β; format: biochemical; conditions: 10 and 100 μM of compound (Figure 2B)
T2 construct: made in house; host or cells: E. coli JMpβ5
Excerpt: as §1, §2
For pols, poly(dA)/oligo(dT)12-18 (A/T = 2/1) and dTTP were used as the DNA template-primer and nucleotide (i.e., dNTP) substrate, respectively. KA-A analogues (i.e., compounds 1–12) were dissolved in distilled dimethyl sulfoxide (DMSO) at various concentrations and sonicated for 30 sec. Aliquots of 4 μL of sonicated samples were mixed with 16 μL of each enzyme (final amount 0.05 units) in 50 mM Tris-HCl (pH 7.5) containing 1 mM dithiothreitol, 50% glycerol and 0.1 mM EDTA, and kept at 0 °C for 10 min. These inhibitor-enzyme mixtures (8 μl) were added to 16 μL of each of the enzyme standard reaction mixtures, and incubation was carried out at 37 °C for 60 min, except for Taq pol, which was incubated at 74 °C for 60 min. Activity without the inhibitor was considered 100%, and the remaining activity at each concentration of the inhibitor was determined relative to this value. One unit of pol activity was defined as the amount of enzyme that catalyzed the incorporation of 1 nmol of dNTP (i.e., dTTP) into synthetic DNA template-primers in 60 min at 37 °C under the normal reaction conditions for each enzyme.

HL-60 cells = assay: HL-60 cancer cell growth, MTT assay; format: cell-based, human; conditions: 50 μM, 24 hr
Description: To investigate the effects of KA-A derivatives in cultured cells, we used a human cancer cell line, HL-60, human promyelocytic leukemia cells (IFO 050022), supplied by the Health Science Research Resources Bank (Osaka, Japan). The cells were routinely cultured in RPMI 1640 medium supplemented with 10% fetal bovine serum, 100 μg/mL streptomycin, 100 unit/mL penicillin, and 1.6 mg/mL NaHCO3. The cells were cultured at 37 °C in standard medium in a humidified atmosphere of 5% CO2-95% air. The rate of the cancer cell growth of the compound was investigated as follows: high concentrations (10 mM) of the compounds were dissolved in DMSO and stocked. Approximately 1 x 10^4 cells per well were inoculated in 96-well micro plates, and then the compound stock solution was diluted to various concentrations, and applied to each well. After incubation for 24 hr, the survival rate was determined by MTT (3-(4,5-dimethylthiazol-2-yl)-2,5-diphenyl tetrazolium bromide) assay.

Rat DNA polymerase β [3] = target: T2, Rat DNA polymerase β; parameters: method as in PMID 12758147; conditions: reported previously; read-out: IC50 value, pol β; cited from earlier work
Calf DNA polymerase α [4] = target: T1, Calf DNA polymerase α; parameters: method as in PMID 12758147; conditions: reported previously; read-out: IC50 value, pol α; cited from earlier work
[5] = system: double-stranded DNA (dsDNA); assay: Thermal transition (Tm) of double-stranded DNA; format: binding; conditions: compound 11 at 200 μM; data not shown
Description: The Tm of dsDNA with an excess amount of compound 11 (200 μM) was measured using a spectrophotometer equipped with a thermoelectric cell holder.

T1 sequence (Q58D13 whole entry): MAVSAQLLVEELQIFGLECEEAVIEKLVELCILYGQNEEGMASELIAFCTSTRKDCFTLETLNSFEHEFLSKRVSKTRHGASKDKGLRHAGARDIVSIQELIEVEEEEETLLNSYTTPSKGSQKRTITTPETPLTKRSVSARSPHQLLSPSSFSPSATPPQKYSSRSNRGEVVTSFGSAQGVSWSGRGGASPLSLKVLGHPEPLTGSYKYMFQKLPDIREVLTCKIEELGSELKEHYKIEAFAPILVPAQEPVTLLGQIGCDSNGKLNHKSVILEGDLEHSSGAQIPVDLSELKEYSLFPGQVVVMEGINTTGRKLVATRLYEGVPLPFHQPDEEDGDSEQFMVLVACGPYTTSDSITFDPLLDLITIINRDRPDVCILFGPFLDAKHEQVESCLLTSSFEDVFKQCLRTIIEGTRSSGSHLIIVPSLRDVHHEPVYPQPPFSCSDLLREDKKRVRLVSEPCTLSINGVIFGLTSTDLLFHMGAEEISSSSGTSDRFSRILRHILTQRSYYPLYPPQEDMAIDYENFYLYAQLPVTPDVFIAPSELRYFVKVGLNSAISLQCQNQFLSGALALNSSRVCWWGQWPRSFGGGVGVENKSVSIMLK
T1 sequence (A0AAA9THK8 entry or part of it): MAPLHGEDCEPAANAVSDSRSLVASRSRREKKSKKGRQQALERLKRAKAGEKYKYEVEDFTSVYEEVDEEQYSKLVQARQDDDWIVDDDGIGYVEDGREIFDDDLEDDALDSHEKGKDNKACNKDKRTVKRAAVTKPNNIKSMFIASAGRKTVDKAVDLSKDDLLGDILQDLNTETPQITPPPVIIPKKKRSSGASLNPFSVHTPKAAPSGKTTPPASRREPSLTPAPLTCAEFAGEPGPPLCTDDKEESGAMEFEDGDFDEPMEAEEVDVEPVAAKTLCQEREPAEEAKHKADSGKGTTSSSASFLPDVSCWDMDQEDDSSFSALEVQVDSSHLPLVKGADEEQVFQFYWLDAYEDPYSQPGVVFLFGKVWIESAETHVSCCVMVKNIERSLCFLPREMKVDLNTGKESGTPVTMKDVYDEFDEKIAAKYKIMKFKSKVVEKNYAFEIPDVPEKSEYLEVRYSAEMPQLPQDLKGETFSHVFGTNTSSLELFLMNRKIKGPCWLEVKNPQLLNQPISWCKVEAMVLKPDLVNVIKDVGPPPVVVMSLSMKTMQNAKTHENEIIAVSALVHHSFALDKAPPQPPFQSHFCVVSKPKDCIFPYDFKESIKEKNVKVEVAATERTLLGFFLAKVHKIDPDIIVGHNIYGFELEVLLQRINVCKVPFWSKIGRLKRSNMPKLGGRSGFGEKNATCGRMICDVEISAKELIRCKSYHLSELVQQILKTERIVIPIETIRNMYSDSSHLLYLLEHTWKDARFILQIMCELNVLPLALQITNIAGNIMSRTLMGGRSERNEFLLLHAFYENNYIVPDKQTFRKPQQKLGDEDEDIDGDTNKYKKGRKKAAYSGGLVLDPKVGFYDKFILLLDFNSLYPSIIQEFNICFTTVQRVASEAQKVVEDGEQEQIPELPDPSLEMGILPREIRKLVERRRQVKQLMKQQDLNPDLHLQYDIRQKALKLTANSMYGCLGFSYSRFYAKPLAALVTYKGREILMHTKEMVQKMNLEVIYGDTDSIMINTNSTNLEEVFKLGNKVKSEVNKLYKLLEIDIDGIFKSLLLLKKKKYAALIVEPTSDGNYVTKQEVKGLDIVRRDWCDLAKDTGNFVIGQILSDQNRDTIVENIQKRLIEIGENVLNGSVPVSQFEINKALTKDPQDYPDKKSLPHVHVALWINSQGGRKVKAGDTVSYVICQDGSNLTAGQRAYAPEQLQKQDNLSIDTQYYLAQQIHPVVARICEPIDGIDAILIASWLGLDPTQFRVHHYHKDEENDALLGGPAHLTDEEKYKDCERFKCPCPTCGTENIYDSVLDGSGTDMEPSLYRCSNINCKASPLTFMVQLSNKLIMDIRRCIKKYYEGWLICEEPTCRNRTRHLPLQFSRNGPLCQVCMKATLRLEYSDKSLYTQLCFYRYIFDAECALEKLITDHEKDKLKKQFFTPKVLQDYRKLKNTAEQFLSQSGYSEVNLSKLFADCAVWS
T1 sequence (A0JNF4 entry or part of it, further chain): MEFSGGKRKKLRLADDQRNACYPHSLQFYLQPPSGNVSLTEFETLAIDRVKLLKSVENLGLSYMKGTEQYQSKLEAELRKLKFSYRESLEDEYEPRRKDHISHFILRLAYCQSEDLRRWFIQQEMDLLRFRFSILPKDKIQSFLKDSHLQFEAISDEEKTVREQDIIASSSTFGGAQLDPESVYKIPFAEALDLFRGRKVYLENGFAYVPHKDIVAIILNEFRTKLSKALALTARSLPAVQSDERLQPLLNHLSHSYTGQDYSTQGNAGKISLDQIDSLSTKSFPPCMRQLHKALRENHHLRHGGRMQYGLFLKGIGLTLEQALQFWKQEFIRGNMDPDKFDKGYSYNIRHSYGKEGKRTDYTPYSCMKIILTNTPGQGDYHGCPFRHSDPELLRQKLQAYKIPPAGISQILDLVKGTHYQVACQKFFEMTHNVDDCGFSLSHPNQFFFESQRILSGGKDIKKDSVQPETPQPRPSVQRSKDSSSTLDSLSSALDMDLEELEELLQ
T1 sequence (A0A3Q1MF00 entry or part of it, further chain): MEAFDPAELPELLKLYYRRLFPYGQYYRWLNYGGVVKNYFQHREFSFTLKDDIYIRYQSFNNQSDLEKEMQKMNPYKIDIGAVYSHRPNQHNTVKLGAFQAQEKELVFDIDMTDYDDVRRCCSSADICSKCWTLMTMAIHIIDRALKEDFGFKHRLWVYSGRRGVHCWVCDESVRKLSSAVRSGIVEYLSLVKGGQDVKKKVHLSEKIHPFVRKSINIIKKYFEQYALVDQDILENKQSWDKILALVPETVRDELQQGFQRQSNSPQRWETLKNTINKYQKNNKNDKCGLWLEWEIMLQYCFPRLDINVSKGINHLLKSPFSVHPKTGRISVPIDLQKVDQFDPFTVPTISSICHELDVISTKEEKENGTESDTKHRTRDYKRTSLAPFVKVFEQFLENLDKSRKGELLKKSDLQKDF

- Inhibitory effect on pol α compared with KA-A (Calf DNA polymerase α [1]; 10 and 100 μM of compound (Figure 2A)): as strong as that of KA-A
- Inhibitory effect on pol β compared with KA-A (Rat DNA polymerase β [2]): as strong as that of KA-A
Compound: CC1=CC[C@H]2C(C)(C)CCC[C@]2(C)[C@H]1CCCCCCCCC(=O)O (relative stereo) [compound 9, (1S*,4aS*,8aS*)-9-(1,4,4a,5,6,7,8,8a-octahydro-2,5,5,8a-tetramethylnaphthalen-1-yl)nonanoic acid]

Compound: CC1=CC[C@H]2C(C)(C)CCC[C@]2(C)[C@H]1CCCCCCCCCCCCC(=O)O (relative stereo) [compound 10, (1S*,4aS*,8aS*)-13-(1,4,4a,5,6,7,8,8a-octahydro-2,5,5,8a-tetramethylnaphthalen-1-yl)tridecanoic acid]
- Growth inhibitory effect on HL-60 cells, rank among compounds tested (HL-60 cells): third strongest

Compound: CC1=CC[C@H]2C(C)(C)CCC[C@]2(C)[C@H]1CCCCCCCCCCCCCCCCCCCCC(=O)O (relative stereo) [compound 12, (1S*,4aS*,8aS*)-21-(1,4,4a,5,6,7,8,8a-octahydro-2,5,5,8a-tetramethylnaphthalen-1-yl)henicosanoic acid]
- Growth inhibitory effect on HL-60 cells, rank among compounds tested (HL-60 cells): second

Compound: C[C@@]1(CO)[C@H](O)CC[C@@]2(C)[C@H]1CC[C@H]1C[C@@H]3C[C@@]12CC[C@]3(O)CO [aphidicolin, reference compound]
- IC50 (Calf DNA polymerase α [1]): 40 µM

Compound: CC(C)=CCC[C@@]1(C)CCC[C@]2(C)[C@@H](CC/C(C)=C/C(=O)O)C(C)=CC[C@@H]12 [compound 1, kohamaic acid A]
- IC50 (Rat DNA polymerase β [3]): 8.4 µM
- IC50 (Calf DNA polymerase α [4]): 7.6 µM

Compound: CC[n+]1c(-c2ccccc2)c2cc(N)ccc2c2ccc(N)cc21 [ethidium bromide, reference compound]
- Thermal transition of Tm of dsDNA [5]: clear thermal transition
